Reference: US4806532A, “Inhibition of epithelial phosphate transport” (Mayo Foundation for Medical Education and Research, priority 1985, dated 1989)
Counter-ions that a name gives are not always drawn.

Columns and labels:
Assay type in all cases: biochemical
Na-Pi cotransporter [1] = target: T1, Na-Pi cotransporter (Canis lupus familiaris, UniProt A0A8I3NFY6); experiment: Na+-gradient-dependent 32Pi uptake by renal BBMV, dog
T1 construct: were prepared from renal cortices of mongrel dogs, albino mice and New Zealand albino rabbits; from tissue; host or cells: mongrel dog renal cortex, brush border membrane vesicles
T1 sequence (A0A8I3NFY6 1-639): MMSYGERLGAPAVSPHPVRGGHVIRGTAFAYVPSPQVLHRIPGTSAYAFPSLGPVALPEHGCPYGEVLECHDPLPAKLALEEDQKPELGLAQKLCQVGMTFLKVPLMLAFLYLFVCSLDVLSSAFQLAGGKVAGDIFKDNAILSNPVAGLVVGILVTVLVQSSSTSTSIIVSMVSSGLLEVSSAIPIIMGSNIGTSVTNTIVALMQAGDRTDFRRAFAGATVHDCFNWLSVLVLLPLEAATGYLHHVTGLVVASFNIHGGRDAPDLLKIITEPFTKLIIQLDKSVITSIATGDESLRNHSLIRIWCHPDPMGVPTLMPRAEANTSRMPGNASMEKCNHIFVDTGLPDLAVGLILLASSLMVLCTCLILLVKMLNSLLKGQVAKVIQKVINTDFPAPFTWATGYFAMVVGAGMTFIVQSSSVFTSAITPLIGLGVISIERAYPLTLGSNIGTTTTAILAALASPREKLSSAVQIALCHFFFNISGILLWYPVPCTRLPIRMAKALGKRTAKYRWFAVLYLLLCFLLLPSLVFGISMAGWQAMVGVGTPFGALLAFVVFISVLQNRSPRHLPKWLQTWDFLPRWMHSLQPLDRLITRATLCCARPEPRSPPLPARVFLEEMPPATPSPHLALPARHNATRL
Method: (§1) The brush border membrane vesicles (BBMV) were prepared from renal cortical tissue of adult male Sprague-Dawley rats of an average body weight of about 220 grams. Rats were fed ad libitum standard rat chow containing 0.7% Pi and had free access to distilled water. Rats were sacrificed under anesthesia and dissected renal cortical tissue was used for preparation of BBMV fraction by the divalent cation-precipitation procedure, employed and described in detail in J. Clin. Invest., 67, 1347 (1981) and J. Biol. Chem., 258, 5695 (1983), with the following modifications: (a) MgCl2 instead of CaCl2 was added to crude homogenate (final concentration 10 mM MgCl2) to precipitate membranes other than BBMV; (b) in the final step, BBMV were washed and equilibrated in a medium of pH=7.5, instead of pH=8.5. The enrichment and specific activities of typical BBM enzymes alkaline phosphatase (APases), γ-glutyamyl transferase (γ-GTT), leucineaminopeptidase (LAP) and maltase with use of these modifications were similar as in BBMV fractions prepared in our previous studies. As a final step in the preparative procedure, the BBMV fraction was washed and resuspended in a medium containing 300 mM mannitol and 5 mM Tris-HEPES adjusted to pH=t.5, referred to as "MTH-medium," unless specified otherwise. The analogous BBMV fractions, using the same procedure, were prepared from renal cortices of mongrel dogs, albino mice and New Zealand albino rabbits.
(§2) The BBMV uptake of ^32 Pi, D-[^3 H]-glucose, L-[^3 H]-proline and ^22 Na^+ was measured by means of a rapid filtration technique, as described in J. Clin. Invest., 67, 1347 (1981) and Am. J. Physiol., 246, F133-F139 (1984). Also, unless specified otherwise, the medium for the solute uptake assay consisted of following compounds (in final concentrations): 100 mM mannitol, 100 mM NaCl (or 100 mM KC1) and 5 mM Tris-HEPES (pH=7.5) and eitehr 0.1 mM K2 H^32 PO4, or 0.05 mM D-[^3 H]-glucose, or 0.025 mM L-[^3 H]-proline. IN the ^22 Na^+ uptake studies, the assay medium contained 100 mM ^22 NaCl (^22 NaCl about […] per tube), 100 mM mannitol and 5 mM Tris-HEPES (pH 7.5).
(§3) In most experiments, the Na^+ -gradient-dependent ^32 Pi uptake in the concentrative "uphill" phase was measured at 20 seconds period. Since Na^+ -independent Pi uptake in this time period was quantitatively minor component (<5%) of the Na^+ -gradient-dependent Pi uptake, it was not routinely subtracted.

Na-Pi cotransporter [2] = target: T2, Na-Pi cotransporter (Mus musculus, UniProt Q60825); experiment: Na+-gradient-dependent 32Pi uptake by renal BBMV, mouse
T2 construct: were prepared from renal cortices of mongrel dogs, albino mice and New Zealand albino rabbits; from tissue; host or cells: albino mouse renal cortex, brush border membrane vesicles
T2 sequence (Q60825 1-637): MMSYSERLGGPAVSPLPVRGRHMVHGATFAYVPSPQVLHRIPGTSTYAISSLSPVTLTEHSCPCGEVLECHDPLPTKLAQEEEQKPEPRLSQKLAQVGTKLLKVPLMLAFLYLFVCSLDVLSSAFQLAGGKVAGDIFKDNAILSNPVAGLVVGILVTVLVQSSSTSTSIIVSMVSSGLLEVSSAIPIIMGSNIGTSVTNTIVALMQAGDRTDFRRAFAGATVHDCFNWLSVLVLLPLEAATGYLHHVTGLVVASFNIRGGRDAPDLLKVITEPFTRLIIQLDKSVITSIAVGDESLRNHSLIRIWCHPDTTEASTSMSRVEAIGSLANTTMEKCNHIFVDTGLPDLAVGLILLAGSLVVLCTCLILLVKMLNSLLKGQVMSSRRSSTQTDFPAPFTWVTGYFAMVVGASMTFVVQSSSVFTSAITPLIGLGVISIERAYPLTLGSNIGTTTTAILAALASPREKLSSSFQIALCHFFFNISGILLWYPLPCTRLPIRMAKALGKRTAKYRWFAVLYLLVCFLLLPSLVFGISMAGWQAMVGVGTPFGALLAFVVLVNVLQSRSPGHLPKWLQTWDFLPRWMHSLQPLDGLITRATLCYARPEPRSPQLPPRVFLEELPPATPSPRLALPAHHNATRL
Method: as §1, §2, §3

(Na-K)ATPase = target: T3, (Na-K)ATPase (Rattus norvegicus, UniProt P06685); experiment: Effect on BaLM enzyme (Na-K)ATPase (data not shown)
T3 construct: from tissue; host or cells: basolateral membrane, kidney (tissue and rat inferred)

[3] = 20 s, 1 mM TPFA, read-out: percent decrease of 20 sec 32Pi-uptake relative to control value
[4] = 20 s, 5 mM TPFA, read-out: percent decrease of 20 sec 32Pi-uptake relative to control value

With `O=C(O)P(=O)(O)O` [TPFA, Phosphonoformic acid, trisodium salt hexahydrate] the “32Pi-uptake 120 min” value (Na-Pi cotransporter [1]; 1 mM TPFA, control 410 ± 5) was 377 ± 6 pmoles Pi/mg protein/time, the “32Pi-uptake 20 sec” value (Na-Pi cotransporter [1]; 1 mM TPFA, control 1178 ± 15) was 476 ± 9 pmoles Pi/mg protein/time and the “32Pi-uptake 20 sec” value (Na-Pi cotransporter [1]; 5 mM TPFA) was 110 ± 3 pmoles Pi/mg protein/time. For the same compound, the “32Pi-uptake 120 min” value (Na-Pi cotransporter [1]; 5 mM TPFA) was 428 ± 9 pmoles Pi/mg protein/time, the inhibition at 1000 µM (Na-Pi cotransporter [1]; [3]) was 59.6% and the inhibition at 5000 µM (Na-Pi cotransporter [1]; [4]) was 90.7%. For the same compound, the “32Pi-uptake 120 min” value (Na-Pi cotransporter [2]; 1 mM TPFA, control 368 ± 7) was 390 ± 74 pmoles Pi/mg protein/time, the “32Pi-uptake 20 sec” value (Na-Pi cotransporter [2]; 1 mM TPFA, control 824 ± 9) was 299 ± 8 pmoles Pi/mg protein/time and the “32Pi-uptake 20 sec” value (Na-Pi cotransporter [2]; 5 mM TPFA) was 97 ± 7 pmoles Pi/mg protein/time. For the same compound, the “32Pi-uptake 120 min” value (Na-Pi cotransporter [2]; 5 mM TPFA) was 404 ± 12 pmoles Pi/mg protein/time, the inhibition at 1000 µM (Na-Pi cotransporter [2]; [3]) was 63.7% and the inhibition at 5000 µM (Na-Pi cotransporter [2]; [4]) was 88.2%. The “effect on BaLM enzyme (Na-K)ATPase” value ((Na-K)ATPase) was “without inhibitory effect”.
